Laboratory results as given in paper PMC7150891, “Mertansine Inhibits mRNA Expression and Enzyme Activities of Cytochrome P450s and Uridine 5′-Diphospho-Glucuronosyltransferases in Human Hepatocytes and Liver Microsomes” (Pharmaceutics, 2020).
“Also recorded” adds a separate entry of the source. Like-named read-outs stand apart in the source and are kept apart here.

Tests used:
UGT1A4 mRNA = UGT1A4 mRNA level in human hepatocytes after 48 h treatment (RT-PCR); details: for IC50: read-out: IC50, suppression of UGT1A4 mRNA expression, 1.25–2500 nM
UGT1A6 = biological target: T1, UGT1A6 (Homo sapiens, UniProt P19224); test: Inhibition of UGT1A6-catalyzed N-acetylserotonin β-D-glucuronidation in ultrapooled human liver microsomes; type: in vitro ADME
T1 construct: ultrapooled human liver microsomes (0.2 mg/mL); from tissue; host or cells: human liver microsomes (ultrapooled)
T1 sequence (P19224 27-532): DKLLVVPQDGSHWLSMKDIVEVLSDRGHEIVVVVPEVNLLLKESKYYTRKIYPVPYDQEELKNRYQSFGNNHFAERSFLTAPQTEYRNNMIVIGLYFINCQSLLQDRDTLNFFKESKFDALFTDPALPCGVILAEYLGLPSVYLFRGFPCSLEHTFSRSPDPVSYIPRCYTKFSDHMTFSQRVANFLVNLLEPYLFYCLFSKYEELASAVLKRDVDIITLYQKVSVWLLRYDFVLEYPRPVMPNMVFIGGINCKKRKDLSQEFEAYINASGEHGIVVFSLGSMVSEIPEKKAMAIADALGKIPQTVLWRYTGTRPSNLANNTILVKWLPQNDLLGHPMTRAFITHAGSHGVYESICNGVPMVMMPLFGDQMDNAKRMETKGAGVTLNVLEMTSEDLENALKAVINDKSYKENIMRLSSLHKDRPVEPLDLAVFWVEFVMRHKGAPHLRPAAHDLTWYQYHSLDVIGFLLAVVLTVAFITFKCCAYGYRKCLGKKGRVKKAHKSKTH
Description: The inhibitory potential of mertansine on UGT1A1, UGT1A3, UGT1A4, UGT1A6, UGT1A9, and UGT2B7 activities was evaluated using liquid chromatography–tandem mass spectrometry (LC-MS/MS) with a cocktail of UGT substrates and ultrapooled human liver microsomes. Each incubation mixture was prepared to a final volume of 100 μL as follows: ultrapooled human liver microsomes (0.2 mg/mL), 5 mM UDPGA, 10 mM magnesium chloride, alamethicin (25 μg/mL), 50 mM Tris buffer (pH 7.4), various concentrations of mertansine in methanol (final concentrations of 0.01–50 μM), and the cocktail sets of UGT enzyme-specific substrates. Two cocktail sets were used: set A contained 0.5 μM SN-38 for UGT1A1, 2 μM chenodeoxycholic acid for UGT1A3, and 0.5 μM trifluoperazine for UGT1A4; and set B contained 1 μM N-acetylserotonin for UGT1A6, 0.2 μM mycophenolic acid for UGT1A9, and 1 μM naloxone for UGT2B7. The reactions were initiated by adding UDPGA and incubated in a shaking water bath for 60 min at 37 °C. Reactions were terminated by adding 50 μL of ice-cold acetonitrile containing internal standards (IS, propofol glucuronide for set A and meloxicam for set B). Incubation mixtures were centrifuged at 13,000 g for 8 min at 4 °C. Next, 50 μL of each supernatant of sets A and B was mixed, and aliquots (5 μL) were analyzed using LC-MS/MS. […]

CYP2C8 mRNA = CYP2C8 mRNA level in human hepatocytes after 48 h treatment (RT-PCR); details: plated cryopreserved human hepatocytes, IC50, suppression of CYP2C8 mRNA expression, 1.25–2500 nM
CYP2B6 mRNA = CYP2B6 mRNA level in human hepatocytes after 48 h treatment (RT-PCR); type: cell-based; details: Mean ± SD of three human hepatocyte lots, 48 h, 1.25–2500 nM, read-out: IC50, suppression of CYP2B6 mRNA expression
Excerpt: (§1) 12.5 (Systat Software, Inc.; San Jose, CA, USA). […] 1.1 (Systat Software, Inc.).

[1] = tested on: CYP2B6 mRNA (suppression of expression); test: as above; type: cell-based; details: 1.25–2500 nM
Excerpt: as §1

CYP2C8 = tested on: CYP2C8; set-up: method as in PMID 25048520, PMID 22752008; details: human liver microsomes, competitive; read-out: Ki, CYP2C8-mediated paclitaxel 6α-hydroxylation; cited from earlier work
recombinant human CYP3A4 = tested on: recombinant human CYP3A4; set-up: method as in PMID 25048520, PMID 22752008; details: cited from earlier work
UGT1A9 mRNA = UGT1A9 mRNA level in human hepatocytes after 48 h treatment (RT-PCR); details: plated cryopreserved human hepatocytes, IC50, suppression of UGT1A9 mRNA expression, 1.25–2500 nM
[2] = human hepatocytes Lot 319, 48 h
[3] = human hepatocytes Lot 321, 48 h
[4] = human hepatocytes Lot 361, 48 h
[5] = Mean ± SD of three human hepatocyte lots, 48 h

Compound: COc1cc2cc(c1Cl)N(C)C(=O)CC(OC(=O)C(C)N(C)C(=O)CCS)C1(C)OC1C(C)C1CC(O)(NC(=O)O1)C(OC)C=CC=C(C)C2 (stereo not drawn) [mertansine, Mertansine]
- IC50 at 48 h (UGT1A4 mRNA; human): > 2500 nM
- IC50 (UGT1A4 mRNA; [2]): > 2500 nM
- IC50 (UGT1A4 mRNA; [3]): > 2500 nM
- IC50 (UGT1A4 mRNA; [4]): > 2500 nM
- Inhibition of UGT1A6 enzyme activity (UGT1A6; human liver microsomes, mertansine at 50 µM): no inhibition; also recorded: negligibly inhibited
- IC50, N-acetylserotonin β-D-glucuronidation (UGT1A6) (UGT1A6; ultrapooled human liver microsomes, 1 µM N-acetylserotonin (cocktail)): No inhibition
- IC50 at 48 h (CYP2C8 mRNA; [5]): 32.1 ± 14.9 nM
- IC50 at 48 h (CYP2C8 mRNA; [2]): 48.7 nM
- IC50 at 48 h (CYP2C8 mRNA; [3]): 20 nM
- IC50 at 48 h (CYP2C8 mRNA; [4]): 27.5 nM
- IC50 at 48 h (CYP2B6 mRNA): 36.8 ± 18.3 nM
- IC50 at 48 h [1, 2]: 25 nM
- IC50 at 48 h [1, 3]: 57.8 nM
- IC50 at 48 h [1, 4]: 27.6 nM
- Ki (CYP2C8): 11000 nM
- KI (inactivation) (recombinant human CYP3A4; recombinant human CYP3A4, irreversible inhibition, read-out: Ki, inactivation of midazolam 1′-hydroxylation): 3400 nM
- kinact, inactivation of midazolam 1′-hydroxylation (recombinant human CYP3A4; recombinant human CYP3A4): 0.058 min⁻¹
- IC50 at 48 h (UGT1A9 mRNA; [5]): 54.1 ± 29.1 nM
- IC50 at 48 h (UGT1A9 mRNA; [2]): 86.9 nM
- IC50 at 48 h (UGT1A9 mRNA; [3]): 31.4 nM
- IC50 at 48 h (UGT1A9 mRNA; [4]): 44.1 nM
